Where “and” joins values, the source holds several entries; their conditions need not be identical. Identical values can stand only once.
Tested on: sEH
Experiment: oxylipin analysis, epoxide/diol ratios (target engagement)
Format: in vivo, pig
Parameters: 14,15-DiHETE: unit not given beside the values; 12,13-DiHOME / 9,10-DiHODE / 11,12-DiHETrE / 14,15-DiHETrE / 10,11-DiHDPE / 19,20-DiHDPE / 13-HODE / 5-HETE / 11-HETE / 12-HETE / 5-HEPE / 9(10)-EpOME / 12(13)-EpOME / EKODE / 11(12)-EpETE: unit not given here
Settings: for 14,15-DiHETE: high blanks
Method: All animals were monitored with pulse oximetry, heart rate, ECG, systemic arterial blood pressure (ABP), pulmonary arterial pressure (PAP), central venous pressure (CVP) temperature, tidal volumes, respiratory rate and end tidal carbon dioxide. At baseline, and at 3 h, 6 h and at the end of the experiment, pulmonary capillary wedge pressure (PCWP) was measured together with arterial and venous blood gas analyses, as well as cardiac output calculations. Routine chemistry, including creatinine, bilirubin, glucose, electrolytes were collected at baseline and at the end of the experiment (Vetscan VS2®, Abaxis, Griesheim, Germany). Blood samples for measurement of AEPU plasma concentrations, as well as oxylipins (i.e., EpETrEs and their DiHETrE corresponding diols as well as related compounds with other polyunsaturated fatty acid precursors), were collected at baseline, 6 h and at the end of the experiment.
This meant nine subjects in each group to achieve 90% power of detecting a difference of this size given α = 0.05. Anticipating that not all experiments would reach completion, we used a sample size of 22. The results were analyzed using SPSS Statistics, version 24 (IBM Corp., Armonk, N.Y., United States). Normality was examined with the Shapiro-Wilk test, together with examination of histograms of data. Continuous variables were compared using Student’s t-test or Mann Whitney U test, as appropriate. Categorical variables were compared using Fischer’s exact test. Statistical significance was set at α < 0.05. Oxylipins with at least 80% of observations above limit of detection at both timepoints were included in pairwise comparisons of ratios and fold-change evaluations where observations below limit of detection (LOD) were substituted with 0.5 x LOD.

[1] = animal 22, time 6, sample Schwein38
[2] = time 0, individual pigs, bad chromatography
[3] = time 6, individual pigs, bad chromatography

## CCOCCOCCOCCCCCNC(=O)NC12CC3CC(CC(C3)C1)C2 [sEH-i]
[1]
  8(9)-EpETrE: <LOD
  8,9-DiHETE: <LOD
  8,9-DiHETrE: 0.0757
  8-HETE: 0.0546
  9(10)-EpODE: 0.22
  9(10)-EpOME: 0.65
  9,10,13-TriHOME: 4.88
  9,10-DiHODE: 0.22
  9,10-DiHOME: 1.64
  9,12,13-TriHOME: <LOD
  9-HETE: <LOD
  9-HODE: 3.67
  9-HOTrE: 0.7165
  9-oxo-ODE: <LOD
  10(11)-EpDPE: <LOD
  10,11-DiHDPE: 0.03
  11(12)-EpETE: 0.07931
  11(12)-EpETrE: 0.0369
  11,12-DiHETE: 0.0372
  11,12-DiHETrE: 0.80
  11-HETE: 0.10
  12(13)-EpODE: 0.32
  12(13)-EpOME: 1.76
  12,13-DiHODE: 0.31
  12,13-DiHOME: 3.15
  12-HEPE: 0.0345
  12-HETE: 0.2294
  12-oxo-ETE: 2.84
  13(14)-EpDPE: <LOD
  13,14-DiHDPE: 0.13
  13-HODE: 19.79
  13-HOTrE: 1.01
  13-oxo-ODE: <LOD
  14(15)-EpETE: <LOD
  14(15)-EpETrE: 0.09
  14,15-DiHETrE: 1.47
  15(16)-EpODE: 4.31
  15,16-DiHODE: 14.18
  15-HEPE: <LOD
  15-HETE: 0.27
  15-HETrE: 0.12
  15-oxo-ETE: 0.03
  16(17)-EpDPE: <LOD
  16,17-DiHDPE: 0.28
  17(18)-EpETE: <LOD
  17,18-DiHETE: 1.29
  17-HDoHE: <LOD
  19(20)-EpDPE: <LOD
  19,20-DiHDPE: 1.67
  20-HETE: 0.10
  EKODE: 0.30
  LTB4: <LOD
  PGD2: <LOD
  PGE2: <LOD
  PGF2a: 0.18
  Resolvin D1: <LOD
  Resolvin D2: <LOD
  TXB2: 0.45
  14,15-DiHETE: 0.2142
Time 0, individual pigs
  5(6)-EpETrE: <LOD
  5,6-DiHETrE: <LOD
  5-HEPE: 0.12 and 0.10 and 0.0352 and 0.0647 and 0.04
  5-HETE: 0.3505 and 0.4442 and 0.2569 and 0.292 and 0.2018
  5-oxo-ETE: <LOD and 0.13 and 0.12
  7(8)-EpDPE: <LOD
  7,8-DiHDPE: <LOD
  8(9)-EpETE: <LOD
  8(9)-EpETrE: <LOD
  8,9-DiHETE: <LOD
  8,9-DiHETrE: 0.05 and 0.0422 and <LOD and 0.06
  8-HETE: 0.06 and 0.08 and 0.053 and 0.0429
  9(10)-EpODE: 0.38 and 0.25 and <LOD
  9(10)-EpOME: 0.98 and 0.51 and 0.65 and 0.99 and 0.62
  9,10-DiHODE: 0.22 and 0.21 and 0.10 and 0.16 and 0.12
  9,10-DiHOME: 1.61 and 1.57 and 0.78 and 1.46 and 0.91
  9-HETE: <LOD
  9-HODE: 8.25 and 8.10 and 3.23 and 6.40 and 4.24
  9-HOTrE: 1.27 and 1.28 and 0.79 and 0.81 and 0.6856
  9-oxo-ODE: <LOD
  10(11)-EpDPE: <LOD
  10,11-DiHDPE: <LOD
  11(12)-EpETE: 0.1253 and 0.08781 and 0.1311 and 0.1265 and 0.1028
  11(12)-EpETrE: <LOD and 0.02 and 0.0347 and 0.03
  11,12-DiHETE: <LOD and 0.0219
  11,12-DiHETrE: 0.32 and 0.22 and 0.18 and 0.46 and 0.23
  11-HETE: 0.13 and 0.12 and 0.05 and 0.0453
  12(13)-EpODE: 0.71 and 0.48 and <LOD and 0.61 and 0.44
  12(13)-EpOME: 3.24 and 1.63 and 2.31 and 2.28 and 1.75
  12,13-DiHODE: 0.45 and 0.48 and 0.25 and 0.29
  12,13-DiHOME: 6.90 and 6.98 and 3.85 and 4.66 and 3.09
  12-HEPE: 0.04 and <LOD and 0.0173
  12-HETE: 0.1828 and 0.38 and 0.09618 and 0.1256 and 0.03983
  12-oxo-ETE: <LOD
  13(14)-EpDPE: <LOD
  13,14-DiHDPE: 0.05 and 0.018 and <LOD and 0.06 and 0.0275
  13-HODE: 29.61 and 29.96 and 13.26 and 18.81 and 12.94
  13-HOTrE: 1.38 and 2.03 and 0.71 and 0.95 and 0.65
  13-oxo-ODE: <LOD
  14(15)-EpETE: <LOD
  14(15)-EpETrE: <LOD
  14,15-DiHETrE: 0.82 and 0.55 and 0.35 and 0.43 and 0.51
  15(16)-EpODE: 12.33 and 9.22 and 4.38 and 5.90 and 3.04
  15,16-DiHODE: 22.17 and 16.83 and 10.14 and 20.63 and 11.96
  15-HEPE: <LOD
  15-HETE: 0.31 and 0.33 and 0.20 and 0.29 and 0.16
  15-HETrE: 0.19 and 0.21 and 0.13 and 0.18 and 0.10
  15-oxo-ETE: 0.03 and <LOD and 0.043 and 0.0266
  16(17)-EpDPE: <LOD
  16,17-DiHDPE: 0.10 and 0.0746 and 0.0252 and 0.0444 and 0.03
  17(18)-EpETE: <LOD
  17,18-DiHETE: 0.69 and 0.45 and 0.26 and 0.66 and 0.46
  17-HDoHE: <LOD
  19(20)-EpDPE: <LOD
  19,20-DiHDPE: 1.19 and 0.80 and 0.30 and 1.02 and 0.43
  20-HETE: 0.11 and 0.12 and 0.0652 and 0.10 and 0.0444
  EKODE: 0.36 and 0.27 and 0.38 and 0.31 and 0.33
  LTB4: <LOD and 0.17
  PGD2: <LOD
  PGE2: <LOD
  PGF2a: <LOD and 0.0428
  Resolvin D1: <LOD
  Resolvin D2: <LOD
  TXB2: 0.0943 and 0.19 and 0.08601 and 0.18
  14,15-DiHETE: 0.1158 and 0.09583 and 0.02876 and 0.02655 and 0.09648
[2]
  9,10,13-TriHOME: 3.66 and 5.50 and 4.37 and 4.76 and 5.61
  9,12,13-TriHOME: <LOD
Time 6, individual pigs
  5(6)-EpETrE: <LOD
  5,6-DiHETrE: <LOD
  5-HEPE: 0.06 and 0.18 and <LOD and 0.07 and 0.05
  5-HETE: 0.3567 and 0.58 and 0.2089 and 0.4225 and 0.4419
  5-oxo-ETE: 0.11 and 0.18 and <LOD and 0.14 and 0.15
  7(8)-EpDPE: <LOD
  7,8-DiHDPE: <LOD
  8(9)-EpETE: <LOD
  8(9)-EpETrE: <LOD
  8,9-DiHETE: <LOD
  8,9-DiHETrE: 0.10 and 0.07 and <LOD and 0.0449
  8-HETE: 0.07 and 0.09 and 0.04 and 0.12 and 0.0759
  9(10)-EpODE: 0.63 and 0.49 and 0.36 and 0.35 and 0.42
  9(10)-EpOME: 1.87 and 1.33 and 0.60 and 1.51 and 2.48
  9,10-DiHODE: 0.64 and 1.20 and 1.17 and 0.73 and 0.69
  9,10-DiHOME: 5.75 and 8.57 and 9.02 and 5.97
  9-HETE: <LOD
  9-HODE: 13.28 and 24.06 and 22.88 and 16.64 and 15.68
  9-HOTrE: 1.36 and 2.59 and 1.91 and 1.50 and 0.95
  9-oxo-ODE: <LOD
  10(11)-EpDPE: <LOD
  10,11-DiHDPE: 0.07 and 0.03 and 0.0327 and 0.02 and 0.0362
  11(12)-EpETE: 0.1179 and 0.09737 and 0.1269 and 0.06515 and 0.0705
  11(12)-EpETrE: 0.05 and 0.0441 and 0.0274 and 0.0271
  11,12-DiHETE: 0.0351 and 0.0319 and 0.0666 and 0.03 and 0.05
  11,12-DiHETrE: 0.86 and 0.62 and 1.36 and 0.66 and 0.92
  11-HETE: 0.42 and 0.30 and 0.66 and 0.25 and 0.40
  12(13)-EpODE: 1.12 and 0.79 and 0.95 and 0.91
  12(13)-EpOME: 5.25 and 4.08 and 1.60 and 5.63 and 7.56
  12,13-DiHODE: 1.01 and 1.89 and 1.53 and 1.48 and 1.36
  12,13-DiHOME: 16.00 and 24.72 and 21.84 and 22.49 and 19.00
  12-HEPE: 0.08 and 0.11 and 0.06 and 0.0632 and 0.04
  12-HETE: 1.11 and 0.86 and 0.59 and 0.65 and 0.46
  12-oxo-ETE: <LOD
  13(14)-EpDPE: <LOD
  13,14-DiHDPE: 0.15 and 0.10 and 0.13 and 0.06
  13-HODE: 42.16 and 101.75 and 49.69 and 56.11 and 42.57
  13-HOTrE: 1.94 and 6.77 and 3.06 and 2.84 and 1.84
  13-oxo-ODE: <LOD and 5.47
  14(15)-EpETE: <LOD
  14(15)-EpETrE: <LOD and 0.0855 and 0.08
  14,15-DiHETrE: 1.69 and 1.48 and 1.65 and 0.72 and 0.63
  15(16)-EpODE: 24.31 and 29.46 and 11.19 and 30.59 and 26.51
  15,16-DiHODE: 54.83 and 45.60 and 30.98 and 42.25 and 33.76
  15-HEPE: <LOD
  15-HETE: 0.63 and 0.86 and 0.43 and 0.48
  15-HETrE: 0.41 and 0.47 and 0.48 and 0.37 and 0.39
  15-oxo-ETE: 0.0346 and <LOD and 0.03 and 0.0128
  16(17)-EpDPE: <LOD
  16,17-DiHDPE: 0.19 and 0.20 and 0.14 and 0.0527 and 0.085
  17(18)-EpETE: <LOD
  17,18-DiHETE: 1.22 and 1.33 and 1.55 and 0.59 and 1.01
  17-HDoHE: <LOD
  19(20)-EpDPE: <LOD
  19,20-DiHDPE: 1.72 and 1.58 and 1.48 and 0.68 and 0.62
  20-HETE: 0.11 and 0.12 and 0.08 and 0.10
  EKODE: 0.88 and 0.74 and 0.47 and 0.87 and 1.05
  LTB4: <LOD and 0.28 and 0.38 and 0.18 and 0.43
  PGD2: <LOD and 0.01 and 0.00656
  PGE2: 0.095 and 0.06 and 0.20 and <LOD and 0.12
  PGF2a: 1.61 and 0.65 and 4.40 and 0.44 and 2.56
  Resolvin D1: <LOD
  Resolvin D2: <LOD
  TXB2: 2.92 and 3.83 and 2.22 and 1.21 and 1.79
  14,15-DiHETE: 0.3645 and 0.4177 and 0.09663 and 0.04163 and 0.2578
[3]
  9,10,13-TriHOME: 2.86 and 3.12 and 7.92 and 7.73 and 5.56
  9,12,13-TriHOME: <LOD and 0.24

Source: publication PMC12457078, “Inhibition of soluble epoxide hydrolase in endotoxin induced pig lung injury” (Frontiers in Pharmacology, 2025)
